Biological target: T1, PfK5ΔL6-MD (Plasmodium falciparum, UniProt O77382, DEL175-269)
T1 construct: gene PF3D7_0317500
Conditions: read-out: KATP; 1 μM GMPCPP-stabilised Sus scrofa microtubules; 50 mM Tris-HCl pH 8, KCl, 2 mM MgCl2, 2 mM DTT; 26 °C

Work on `Nc1ncnc2c1ncn2[C@@H]1O[C@H](COP(=O)(O)OP(=O)(O)OP(=O)(O)O)[C@@H](O)[C@H]1O` [ATP] yielded a Km of 9.5 µM.

Source: PMC8526983 (The Journal of Biological Chemistry, 2021)
